# Columns and labels:
# [1] = test system: Monochoria vaginalis, Presl.; experiment: Preemergence weed control under flooded paddy conditions, MOOVA (Monochoria); format: in vivo; details: preemergence, flooded paddy, rated three to four weeks after treatment
# [2] = test system: Cyperus iria; experiment: Preemergence weed control under flooded paddy conditions, CYPIR (Rice Flatsedge); format: in vivo; details: preemergence, flooded paddy, rated three to four weeks after treatment
# [3] = test system: Oryza sativa, (L.) Tebonnet; experiment: Rice tolerance to post-transplant applications under flooded paddy conditions (Example 187), ORYSAT (Rice, Tebonnet); details: rated three to four weeks after treatment
# [4] = test system: Sagittaria pygmaea, L.; experiment: Preemergence weed control under flooded paddy conditions, SAGPY (Arrowhead (Pygmaea)); format: in vivo; details: preemergence, flooded paddy, rated three to four weeks after treatment
# [5] = test system: Echinochloa oryzoides (Ard.) Fritsch.; experiment: Preemergence weed control under flooded paddy conditions, ECHORC (Watergrass (Calif.)); format: in vivo; details: preemergence, flooded paddy, rated three to four weeks after treatment
# [6] = test system: Cyperus serotinus, Rottb.; experiment: Preemergence weed control under flooded paddy conditions, CYPSE (Flatsedge); format: in vivo; details: preemergence, rated three to four weeks after treatment
SMILES,MOOVA herbicidal effect rating ([1]; Rate 0.0313 kg/ha),MOOVA herbicidal effect rating ([1]; Rate 0.0625 kg/ha),MOOVA herbicidal effect rating ([1]; Rate 0.1250 kg/ha),MOOVA herbicidal effect rating ([1]; Rate 0.2500 kg/ha),CYPIR herbicidal effect rating ([2]; Rate 0.0313 kg/ha),CYPIR herbicidal effect rating ([2]; Rate 0.0625 kg/ha),CYPIR herbicidal effect rating ([2]; Rate 0.1250 kg/ha),CYPIR herbicidal effect rating ([2]; Rate 0.2500 kg/ha),ORYSAT herbicidal effect rating ([3]; Rate 0.0313 kg/ha),ORYSAT herbicidal effect rating ([3]; Rate 0.0625 kg/ha),ORYSAT herbicidal effect rating ([3]; Rate 0.1250 kg/ha),ORYSAT herbicidal effect rating ([3]; Rate 0.2500 kg/ha),SAGPY herbicidal effect rating ([4]; Rate 0.0313 kg/ha),SAGPY herbicidal effect rating ([4]; Rate 0.0625 kg/ha),SAGPY herbicidal effect rating ([4]; Rate 0.1250 kg/ha),SAGPY herbicidal effect rating ([4]; Rate 0.2500 kg/ha),ECHORC herbicidal effect rating ([5]; Rate 0.0313 kg/ha),ECHORC herbicidal effect rating ([5]; Rate 0.0625 kg/ha),ECHORC herbicidal effect rating ([5]; Rate 0.1250 kg/ha),ECHORC herbicidal effect rating ([5]; Rate 0.2500 kg/ha),other results
"C=CCCOCc1nsc2ccc(-n3c(=O)cc(C(F)(F)F)n(C)c3=O)cc12 [Example 223, 3-{3-[(3-Butenyloxy)methyl]-1,2-benzisothiazol-5-yl}-1-methyl-6-(trifluoromethyl)-2,4(1H,3H)-pyrimidinedione]",9.0,9.0,9.0,9.0,4.0,7.0,7.0,9.0,7.0,8.0,8.0,9.0,0.0,2.0,6.0,9.0,6.0,6.0,8.0,9.0,CYPSE herbicidal effect rating ([6]; Rate 0.0313 kg/ha): 0.0; CYPSE herbicidal effect rating ([6]; Rate 0.0625 kg/ha): 4.0; CYPSE herbicidal effect rating ([6]; Rate 0.1250 kg/ha): 6.0; CYPSE herbicidal effect rating ([6]; Rate 0.2500 kg/ha): 8.0
"Cn1c(C(F)(F)F)cc(=O)n(-c2ccc3snc(COCCCCl)c3c2)c1=O [Example 224, 3-{3-[(3-Chloropropoxy)methyl]-1,2-benzisothiazol-5-yl}-1-methyl-6-(trifluoromethyl)-2,4(1H,3H)-pyrimidinedione]",9.0,9.0,9.0,9.0,4.0,7.0,8.0,8.0,6.0,7.0,8.0,9.0,0.0,2.0,4.0,8.0,6.0,9.0,9.0,9.0,CYPSE herbicidal effect rating ([6]; Rate 0.0313 kg/ha): 0.0; CYPSE herbicidal effect rating ([6]; Rate 0.0625 kg/ha): 0.0; CYPSE herbicidal effect rating ([6]; Rate 0.1250 kg/ha): 2.0; CYPSE herbicidal effect rating ([6]; Rate 0.2500 kg/ha): 7.0
"Cn1c(C(F)(F)F)cc(=O)n(-c2ccc3snc(CO)c3c2)c1=O [Example 225, 3-[3-(Hydroxymethyl)-1,2-benzisothiazol-5-yl]-1-methyl-6-(trifluoromethyl)-2,4(1H,3H)-pyrimidinedione]",8.0,8.0,9.0,9.0,0.0,0.0,2.0,7.0,3.0,4.0,6.0,7.0,0.0,0.0,0.0,0.0,0.0,2.0,4.0,7.0,CYPSE herbicidal effect rating ([6]; Rate 0.0313 kg/ha): 0.0; CYPSE herbicidal effect rating ([6]; Rate 0.0625 kg/ha): 0.0; CYPSE herbicidal effect rating ([6]; Rate 0.1250 kg/ha): 0.0; CYPSE herbicidal effect rating ([6]; Rate 0.2500 kg/ha): 0.0

# From patent EP0908457B1, “3-(1,2-benzisothiazol- and isoxazol-5-Y1)-2,4(1H,3H)-pyrimidinedione or thione and 3-(1,2-benzisothiazol- and isoxazol-5-y1)-4(3H)-pyrimidinone or thione herbicidal agents” (BASF AKTIENGESELLSCHAFT, priority 1997, dated 1999)
